This note sets out measurements from US8394969B2, “Cyclic benzimidazole derivatives useful as anti-diabetic agents” (Merck Sharp & Dohme Corp., priority 2008, dated 2013).

Where a name gives a salt, the structure may show the parent alone. Read-outs that look alike come from different tables or passages of the source.

The target of this assay is recombinant human AMPK complex 1 (containing α1β1γ1) (Homo sapiens, UniProt Q13131+Q9Y478). Put plainly: […] (in vitro AMPK activation assay). It counts as biochemical. To be noted: for Emax: basal activity subtracted. The method, then: Recombinant viruses were generated by cotransfection of AMPK/pBacPak9 clones with Baculogold baculovirus DNA (Pharmingen) in spodoptera frugiperda 21 cells according to the manufacturer's instructions. Each round of virus amplification was performed for 5 days in Grace's medium containing 10% serum. Virus that had been subjected to three rounds of amplification was used for all protein production procedures. To express the AMPK complex, sf21 cells were adapted to serum free medium (SF900 II, Invitrogen) by sequential dilution from serum containing stocks into SF900 II medium and maintained in shaker flasks at 90 rpm at 27° C. The recombinant AMPK enzyme complex was produced by triple infection, one recombinant virus for each of the subunits, in sf21 cells under serum free conditions. […] Cells were harvested by centrifugation at 10,000×g for 15 minutes after 72 hours of infection with viruses. The insect cell pellet from 2 liters of culture was resuspended in 50 ml lysis buffer (20 mM Tris-HCl, 50 mM NaCl, 50 mM NaF, 30 mM Na PPi, 0.25 M sucrose, 10 mM ZnCl2, 2 mM DTT, 0.4 mg/ml digitonin) and subjected to two cycles of freeze-thaw lysis in a dry-ice ethanol bath. Insoluble material was removed by centrifugation at 10,000×g and the supernatant was fractionated with use of polyethylene glycol (PEG).
The total in vitro AMPK activation assay volume is 50 μl in a 96-well plate. […] The reaction was initiated with addition of the enzyme. After 30-minute incubation at 30° C., the reaction was stopped by addition of 80 μl 1% H3PO4. Aliquots (100 μl) were transferred to 96-well MultiScreen plates (MAPHNOB50; Millipore Corp., Bedford, Mass., USA). The plate was washed three times with 1% H3PO4 followed by detection in a Top-count. The counts per minute from the basal activity (the reaction without activator) was subtracted from each well and the data were expressed as % maximum AMP activation followed by EC50 calculation.

Where [1] appears, read: recombinant human AMPK complex 1 (α1β1γ1), read-out: % Maximum AMP Activation of human AMPK Complex 1.

Sequence of recombinant human AMPK complex 1 (containing α1β1γ1) (Q13131 whole entry): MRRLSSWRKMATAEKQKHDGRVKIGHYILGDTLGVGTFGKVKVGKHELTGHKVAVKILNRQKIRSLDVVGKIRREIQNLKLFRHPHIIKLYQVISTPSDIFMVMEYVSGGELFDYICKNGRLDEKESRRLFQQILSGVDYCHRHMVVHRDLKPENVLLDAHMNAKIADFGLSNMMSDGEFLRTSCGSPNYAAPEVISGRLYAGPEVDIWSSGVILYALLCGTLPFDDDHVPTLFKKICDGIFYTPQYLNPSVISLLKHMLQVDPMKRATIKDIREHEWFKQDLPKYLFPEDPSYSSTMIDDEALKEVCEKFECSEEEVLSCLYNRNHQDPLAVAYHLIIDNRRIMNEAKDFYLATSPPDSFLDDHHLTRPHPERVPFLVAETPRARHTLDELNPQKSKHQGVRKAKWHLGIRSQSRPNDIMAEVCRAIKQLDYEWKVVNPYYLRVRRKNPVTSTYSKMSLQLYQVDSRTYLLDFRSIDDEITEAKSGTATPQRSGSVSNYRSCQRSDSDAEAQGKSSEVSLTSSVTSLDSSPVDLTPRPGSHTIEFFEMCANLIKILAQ
Sequence of recombinant human AMPK complex 1 (containing α1β1γ1) (Q9Y478 whole entry): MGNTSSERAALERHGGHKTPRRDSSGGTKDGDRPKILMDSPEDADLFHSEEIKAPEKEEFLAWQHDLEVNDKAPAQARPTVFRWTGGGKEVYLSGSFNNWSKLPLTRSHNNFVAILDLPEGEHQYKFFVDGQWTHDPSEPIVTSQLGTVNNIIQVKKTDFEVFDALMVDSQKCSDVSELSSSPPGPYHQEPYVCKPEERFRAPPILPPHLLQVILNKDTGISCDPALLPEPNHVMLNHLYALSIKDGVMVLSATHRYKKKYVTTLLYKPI
Sequence of recombinant human AMPK complex 1 (containing α1β1γ1) (P54619 whole entry partner): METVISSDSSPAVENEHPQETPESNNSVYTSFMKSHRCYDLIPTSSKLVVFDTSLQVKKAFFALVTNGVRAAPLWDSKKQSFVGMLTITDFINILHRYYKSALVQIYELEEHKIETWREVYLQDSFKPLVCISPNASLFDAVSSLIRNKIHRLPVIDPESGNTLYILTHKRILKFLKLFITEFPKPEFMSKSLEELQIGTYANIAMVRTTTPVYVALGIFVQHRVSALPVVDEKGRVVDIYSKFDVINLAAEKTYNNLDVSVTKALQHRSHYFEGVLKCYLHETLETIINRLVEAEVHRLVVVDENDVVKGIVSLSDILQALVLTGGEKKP

For the molecule `O=C(O)c1ccc(COc2nc3cc(-c4ccc(-c5ccccc5)cc4)c(Cl)cc3[nH]2)cc1` [Example 226, 4-(5-Biphenyl-4-yl-6-chloro-1H-benzoimidazol-2-yloxymethyl)-benzoic acid], the Emax under setting [1] was greater than 80%. On the same count and under the same terms, for `Cc1ccc(Oc2nc3cc(-c4ccc5c(c4)CCN5C)c(Cl)cc3[nH]2)cc1C(=O)O` [Example 282, 5-[6-Chloro-5-(1-methyl-2,3-dihydro-1H-indol-5-yl)-1H-benzoimidazol-2-yloxy]-2-methyl-benzoic acid] the value was greater than 80%. Still for that read-out and setting: to `Cc1ccnc(-c2cc3nc(Oc4ccc(C)c(C(=O)O)c4)[nH]c3cc2Cl)c1` [Example 335, 2-(3-carboxy-4-methylphenoxy)-6-chloro-5-(4-methylpyridin-2-yl)-1H-3,1-benzimidazol-3-ium formate] belongs greater than 80%; to `Cc1ccc(Oc2nc3cc(C#CC4(O)CCCC4)c(Cl)cc3[nH]2)cc1C(=O)O` [Example 135, 5[6-Chloro-5-(1-hydroxy-cyclopentylethynyl)-1H-benzoimidazol-2-yloxy]-2-methyl-benzoic acid], greater than 80%.

For `Cc1ccc(Oc2nc3cc(-c4ccc(C(F)(F)F)cc4)c(Cl)cc3[nH]2)cc1C(=O)O` [Example 337, Ammonium 5-({6-chloro-5-[4-(trifluoromethyl)phen-yl]-1H-benzimidazol-2-yl}oxy)-2-methylbenzoate], the Emax (read-out: % Maximum AMP Activation of human AMPK Complex 1, recombinant human AMPK complex 1 (α1β1γ1)) is greater than 80%. In the case of `Cc1ccc(Oc2nc3cc(-c4ccc5c(ccn5CCO)c4)c(Cl)cc3[nH]2)cc1C(=O)O` [Example 263, 5-({6-chloro-5-[1-(2-hydroxyethyl)-1H-indol-5-yl]-1H-benzimidazol-2-yl}oxy)-2-methylbenzoic acid], the Emax under setting [1] was greater than 80%.

Take `Cc1ccc(Oc2nc3cc(-c4ccc5c(c4)CNC5=O)c(Cl)cc3[nH]2)cc1C(=O)O` [Example 305, 5-[6-Chloro-5-(1-oxo-2,3-dihydro-1H-isoindol-5-yl)-1H-benzoimidazol-2-yloxy]-2-methyl-benzoic acid]: the Emax under setting [1] is greater than 80%. Take `COC(=O)c1cc(Oc2nc3cc(-c4ccc(-c5ccccc5)cc4)c(Cl)cc3[nH]2)cc(C)c1C(=O)OC` [Example 15, 5-(5-Biphenyl-4-yl-6-chloro-1H-benzoimidazol-2-yloxy)-3-methyl-phtalic acid dimethyl ester]: under setting [1], the Emax is greater than 80%. The same measure, in the same setting: to `Cc1ccc(Oc2nc3cc(-c4cnc5c(c4)OCCN5C)c(Cl)cc3[nH]2)cc1C(=O)O` [Example 143, 2-(3-carboxy-4-methylphenoxy)-6-chloro-5-(4-methyl-3,4-dihydro-2H-pyrido[3,2-b] [1,4]oxazin-7-yl)-1H-3,1-benzimidazol-3-ium trifluoroacetate] belongs greater than 80%; to `Cc1ccc(Oc2nc3cc(-c4ccc(-c5ccccc5)cc4)c(Cl)cc3n2CC(=O)O)cc1C(=O)O` [Example 224, 5-(5-Biphenyl-1-yl-1-carboxymethyl-6-chloro-1H-benzoimidazol-2-yloxy)-2-methyl-benzoic acid], greater than 80%. Turning to `Cc1ccc(Oc2nc3cc(-c4ccc5c(cnn5C)c4)c(Cl)cc3[nH]2)cc1C(=O)O` [Example 142, 5-[6-Chloro-5-(1-methyl-1H-indazol-5-yl)-1H-benzoimidazol-2-yloxy]-2-methyl-benzoic acid], under setting [1], the Emax was greater than 80%.

For the molecule `O=C(O)Cn1nnc(-c2cccc(Oc3nc4cc(-c5ccc(-c6ccccc6)cc5)c(Cl)cc4[nH]3)c2)n1` [Example 40, {5-[3-(5-Biphenyl-4-yl-6-chloro-1H-benzoimidazol-2-yloxy)-phenyl]-tetrazol-2-yl}-acetic acid], under setting [1], the Emax is greater than 80%. Same read-out and setting: for `Cc1ccc(Oc2nc3cc(C#Cc4ccc(-c5cscn5)cc4)c(Cl)cc3[nH]2)cc1C(=O)O` [Example 83, 5-[6-Chloro-5-(4-thiazol-4-yl-phenylethynyl)-1H-benzoimidazol-2-yloxy]-2-methyl-benzoic acid] the value was greater than 80%. Turning to `O=C(O)c1cc(Oc2nc3cc(-c4ccc(-c5ccccc5)cc4)c(Cl)cc3[nH]2)ccc1O` [Example 28, 5-(5-Biphenyl-4-yl-6-chloro-1H-benzoimidazol-2-yloxy)-2-hydroxy-benzoic acid], the Emax under setting [1] is greater than 80%. Regarding `Cn1ccc2cc(-c3cc4nc(Oc5ccc(CC(=O)O)cc5)[nH]c4cc3Cl)ccc21` [Example 243, {4-[6-Chloro-5-(1-methyl-1H-indol-5-yl)-1H-benzoimidazol-2-yloxy]-phenyl}-acetic acid], the Emax under setting [1] was greater than 80%. Still for that read-out and setting: for `Cc1ccc(Oc2nc3cc(-c4ccc(N(C)C)c(F)c4)c(Cl)cc3[nH]2)cc1C(=O)O` [Example 296, 2-(3-carboxy-4-methylphenoxy)-6-chloro-5-[4-(dimethylamino)-3-fluorophenyl]-1H-3,1-benzimidazol-3-ium chloride] the value was greater than 80%.

As for `Cc1ccc(Oc2nc3cc(-c4ccc(C5CC5)cc4)c(Cl)cc3[nH]2)cc1C(=O)O` [Example 230, 5-{[6-chloro-5-(4-cyclopropylphenyl)-1H-benzimidazol-2-yl]oxy}-2-methylbenzoic acid], the EC50 (recombinant human AMPK complex 1 (α1β1γ1), read-out: EC50) turned out to be 9 nM. For the molecule `COC(=O)C1(c2ccc(Oc3nc4cc(-c5ccc(-c6ccccc6)cc5)c(Cl)cc4[nH]3)cc2)CC1` [Example 6, 1-[4-(5-Biphenyl-4-yl-6-chloro-1H-benzoimidazol-2-yloxy)-phenyl]-cyclopropanecarboxylic acid methyl ester], the Emax under setting [1] is greater than 80%.

On to `COc1ccc(-c2ccc(-c3cc4nc(Oc5cc(C)c(C)c(C(=O)O)c5)[nH]c4cc3Cl)cc2)cn1` [Example 315, 5-{6-Chloro-5-[4-(6-methoxy-pyridin-3-yl)-phenyl]-1H-benzoimidazol-2-yloxy}-2,3-dimethyl-benzoic acid], for which the Emax under setting [1] is greater than 80%.

As to `NC(=O)c1ccc(Oc2nc3cc(-c4ccc(-c5ccccc5)cc4)c(Cl)cc3[nH]2)cc1` [Example 30, 4-(5-Biphenyl-4-yl-6-chloro-1H-benzoimidazol-2-yloxy)-benzamide], the Emax under setting [1] was greater than 80%. Still for that read-out and setting: for `Cc1ccc(Oc2nc3cc(-c4ccc(N5CCN(C(=O)OC(C)(C)C)CC5)nc4)c(Cl)cc3[nH]2)cc1C(=O)O` [Example 175, 4-{5-[2-(3-Carboxy-4-methyl-phenoxy)-6-chloro-1H-benzoimidazol-5-yl]-pyridin-2-yl}-piperazine-1-carboxylic acid tert-butyl ester] the value was greater than 80%. With `COc1ccc(-c2cc3nc(Oc4ccc(C)c(C(=O)O)c4)[nH]c3cc2Cl)c(F)c1.N` [Example 342, Ammonium 5-{[6-chloro-5-(2-fluoro-4-methoxyphenyl)-1H-benzimidazol-2-yl]oxy}-2-methylbenzoate], the “% Maximum AMP Activation of human AMPK Complex 1” value was “greater than 80%”. On to `O=C(O)c1cncc(Oc2nc3cc(-c4ccc(-c5ccccc5)cc4)c(Cl)cc3[nH]2)c1` [Example 34, 5-(5-Biphenyl-4-yl-6-chloro-1H-benzoimidazol-2-yloxy)-nicotinic acid], for which, under setting [1], the Emax is greater than 80%.

Turning to `COC(=O)c1cc(Oc2nc3cc(-c4ccc(-c5ccncc5)cc4)c(Cl)cc3[nH]2)ccc1C` [Example 167, 5-[6-Chloro-5-(4-pyridin-4-yl-phenyl)-1H-benzoimidazol-2-yloxy]-2-methyl-benzoic acid methyl ester], the Emax under setting [1] is greater than 80%. For the molecule `Cc1ccc(Oc2nc3cc(C#Cc4cccc(Cl)c4)c(Cl)cc3[nH]2)cc1C(=O)O` [Example 110, 5-[6-Chloro-5-(3-chloro-phenylethynyl)-1H-benzoimidazol-2-yloxy]-2-methyl-benzoic acid], under setting [1], the Emax was greater than 80%. The same measure, in the same setting: for `COC(=O)c1cc(Oc2nc3cc(C#CC4(O)CCCC4)c(Cl)cc3[nH]2)ccc1C` [Example 137, 5-[6-Chloro-5-(1-hydroxy-cyclopentylethynyl)-1H-benzoimidazol-2-yloxy]-2-methyl-benzoic acid methyl ester] the value was greater than 80%; for `O=C(O)c1cccc(Nc2nc3cc(-c4ccc(-c5ccccc5O)cc4)c(Cl)cc3[nH]2)c1` [Example 52, 3-[6-Chloro-5-(2′-hydroxy-biphenyl-4-yl)-1H-benzoimidazol-2-ylamino]-benzoic acid], greater than 80%. With `Cc1ccc(Oc2nc3cc(C#Cc4ccc(F)cc4F)c(Cl)cc3[nH]2)cc1C(=O)O` [Example 76, 5-[6-Chloro-5-(2,4-difluoro-phenylethynyl)-1H-benzoimidazol-2-yloxy]-2-methyl-benzoic acid], the Emax under setting [1] was greater than 80%. For `Cc1ccc(Oc2nc3cc(-c4ccc(-c5ccccc5C)cc4)c(Cl)cc3[nH]2)cc1C(=O)O` [Example 193, 5-{[6-chloro-5-(2′-methylbiphenyl-4-yl)-1H-benzimidazol-2-yl]oxy}-2-methylbenzoic acid], the Emax under setting [1] was greater than 80%.
